Data as given in article PMC10525445, “Antitrypanosomal Activity of 1,2,3-Triazole-Based Hybrids Evaluated Using In Vitro Preclinical Translational Models” (Biology, 2023).

How the values were obtained:
[1] = test system: heart muscle cells (2D culture); test: Cardiotoxic effect on 2D primary heart muscle cell culture; type: cell-based, Swiss Webster mice; conditions: heart muscle cell monolayers, 72 h, up to 500 µM; read-out: Toxicity 2D Culture (CC50)
Procedure: (§1) Primary heart muscle cell cultures were obtained from fetuses of female Swiss Webster mice, as previously described. After heart removal and ventricle fragmentation, tissue fragments were dissociated in a trypsin and collagenase type II (Worthington Biochemical Corporation, Lakewood, USA) dissociation solution. For two-dimensional (2D) cultures, the isolated cardiac cells were seeded at a density of 5 × 10^4 cells/well in gelatin (0.1%)-coated 96-well white culture plates. Three-dimensional (3D) cardiac spheroids were obtained after seeding isolated heart muscle cells at a density of 2.5 × 10^4 cells/well in an agarose (1%)-coated 96-well U-bottom plate, as described in [35]. Heart muscle cells cultures were cultivated in Dulbecco’s modified Eagle medium (DMEM) supplemented with 7% FBS, 2.5 mM CaCl2, 2% embryo extract, and 1 mM L-glutamin and maintained at 37 °C in a humidified atmosphere of 5% CO2. All procedures with animals were approved by the Animal Care and Use Committee at the Oswaldo Cruz Institute (license L-017/2022).
(§2) The toxic effect of the triazole series was evaluated on VERO cell monolayers. After seeding for 24 hours, VERO cells were treated for 72 h at 37 °C with the 1,2,3-triazole derivatives and Bz, the reference drug, with a range of concentration from 15.62 to 500 µM. Controls were performed with a non-toxic concentration of dimethyl sulfoxide (DMSO; ≤0.1%) used in the experimental assays. Cell viability was determined by measuring ATP level using a CellTiter Glo kit. The luminescence read was performed using a Glomax microplate reader (Promega Corporation, Madison, WI, EUA). The cytotoxicity concentration 50 (CC50), the drug concentration that reduces cell viability by 50%, was calculated using linear regression. […] Cultures were exposed for 72 h to compound concentrations up to 500 µM, following the protocol mentioned above. At least 3 independent assays were performed in duplicate.

[2] = test system: VERO cells; test: Cytotoxicity on VERO cell monolayers (CellTiter Glo, 72 h); type: cell-based; conditions: ATP level
Procedure: as §2, with “VERO cells (Rio de Janeiro Cell Bank code 0245) were cultivated in RPMI 1640 medium supplemented with 10% fetal bovine serum (FBS) at 37 °C in a humidified atmosphere of 5% CO2. Confluent monolayers were dissociated with trypsin-EDTA solution (0.025%), and isolated cells were seeded on culture plates or flasks, depending on the experimental assay. The VERO cell cultures were used in cytotoxicity and phenotypic screening assays and for obtaining culture-derived trypomastigotes. The toxic” for “The toxic”

[3] = test system: 3D cardiac microtissue (heart muscle cells); test: Cardiotoxic effect on 3D cardiac spheroids; type: cell-based, Swiss Webster mice; conditions: 72 h, up to 500 µM, read-out: Toxicity 3D Culture (CC50)
Procedure: as §1, §2

[4] = Cardiotoxic effect on 2D primary heart muscle cell culture; type: cell-based, Swiss Webster mice; conditions: Swiss Webster, mouse, primary fetal heart muscle cells, 2D monolayer culture, heart muscle cell monolayers, up to 500 µM, read-out: Toxicity 2D Culture (CC50)
Procedure: as §1, §2

[5] = Cytotoxicity on VERO cell monolayers (CellTiter Glo, 72 h); type: cell-based; conditions: African green monkey, VERO cell monolayers, ATP level, read-out: Cytotoxicity VERO Cells CC50
Procedure: as §2, with “VERO cells (Rio de Janeiro Cell Bank code 0245) were cultivated in RPMI 1640 medium supplemented with 10% fetal bovine serum (FBS) at 37 °C in a humidified atmosphere of 5% CO2. Confluent monolayers were dissociated with trypsin-EDTA solution (0.025%), and isolated cells were seeded on culture plates or flasks, depending on the experimental assay. The VERO cell cultures were used in cytotoxicity and phenotypic screening assays and for obtaining culture-derived trypomastigotes. The toxic” for “The toxic”

[6] = Cardiotoxic effect on 3D cardiac spheroids; type: cell-based, Swiss Webster mice; conditions: Swiss Webster, mouse, 3D cardiac spheroids of primary fetal heart muscle cells, 3D cardiac microtissue, up to 500 µM, read-out: Toxicity 3D Culture (CC50)
Procedure: as §1, §2

Molecule	CC50 [1]	CC50 [2]	CC50 [3]	CC50 at 72 h [4]	CC50 at 72 h [5]	CC50 at 72 h [6]
4-Phenyl-1-(m-tolyl)-1H-1,2,3-triazole [Triazole 1f]	111 ± 10.1 µM	86.8 ± 2.73 µM	> 500 µM	–	–	–
COc1ccc(-n2cc(-c3ccccc3)nn2)cc1 [Triazole 1d, 1-(4-Methoxyphenyl)-4-phenyl-1H-1,2,3-triazole]	–	–	–	> 500 µM	> 500 µM	> 500 µM
c1ccc(-c2cn(-c3ccccc3)nn2)cc1 [Triazole 1g, 1-(4-Diphenyl)-1H-1,2,3-triazole]	–	–	–	> 500 µM	> 500 µM	> 500 µM
